From ChEMBL document CHEMBL5465560, “Selectivity Literature for EUbOPEN Chemogenomic Library” (2024)

Legend:
[1] = system: T1, Receptor-type tyrosine-protein kinase FLT3 (Homo sapiens), P36888 [D835Y]; details: at 10 µM
T1 sequence (whole entry): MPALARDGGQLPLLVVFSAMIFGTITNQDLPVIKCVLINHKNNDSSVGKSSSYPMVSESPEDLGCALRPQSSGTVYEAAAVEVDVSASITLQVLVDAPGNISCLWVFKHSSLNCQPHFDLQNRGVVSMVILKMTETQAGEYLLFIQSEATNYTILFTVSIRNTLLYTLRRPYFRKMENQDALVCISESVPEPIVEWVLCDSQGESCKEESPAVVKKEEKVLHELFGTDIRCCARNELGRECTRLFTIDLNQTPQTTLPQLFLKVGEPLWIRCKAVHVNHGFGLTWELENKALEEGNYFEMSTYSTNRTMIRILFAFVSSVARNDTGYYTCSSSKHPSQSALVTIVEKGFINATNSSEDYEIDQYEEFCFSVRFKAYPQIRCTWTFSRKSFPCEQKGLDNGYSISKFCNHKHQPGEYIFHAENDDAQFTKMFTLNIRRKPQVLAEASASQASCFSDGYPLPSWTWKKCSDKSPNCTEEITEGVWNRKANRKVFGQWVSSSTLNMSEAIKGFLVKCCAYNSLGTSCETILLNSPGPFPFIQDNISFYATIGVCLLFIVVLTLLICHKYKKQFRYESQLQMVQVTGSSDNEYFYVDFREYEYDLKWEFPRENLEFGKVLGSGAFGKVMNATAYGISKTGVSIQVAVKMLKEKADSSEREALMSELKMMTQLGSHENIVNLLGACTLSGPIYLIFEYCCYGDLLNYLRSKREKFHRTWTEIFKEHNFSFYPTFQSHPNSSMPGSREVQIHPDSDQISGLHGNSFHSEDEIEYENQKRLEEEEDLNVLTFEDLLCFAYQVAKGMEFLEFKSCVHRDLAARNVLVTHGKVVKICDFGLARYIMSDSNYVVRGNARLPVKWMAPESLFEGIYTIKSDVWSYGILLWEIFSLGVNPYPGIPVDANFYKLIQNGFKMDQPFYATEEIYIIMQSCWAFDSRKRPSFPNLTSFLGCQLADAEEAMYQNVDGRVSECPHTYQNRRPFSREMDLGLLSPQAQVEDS

[2] = target: T2, cAMP-dependent protein kinase catalytic subunit PRKX (Homo sapiens) (UniProt P51817); details: at 10 µM
T2 sequence (whole entry): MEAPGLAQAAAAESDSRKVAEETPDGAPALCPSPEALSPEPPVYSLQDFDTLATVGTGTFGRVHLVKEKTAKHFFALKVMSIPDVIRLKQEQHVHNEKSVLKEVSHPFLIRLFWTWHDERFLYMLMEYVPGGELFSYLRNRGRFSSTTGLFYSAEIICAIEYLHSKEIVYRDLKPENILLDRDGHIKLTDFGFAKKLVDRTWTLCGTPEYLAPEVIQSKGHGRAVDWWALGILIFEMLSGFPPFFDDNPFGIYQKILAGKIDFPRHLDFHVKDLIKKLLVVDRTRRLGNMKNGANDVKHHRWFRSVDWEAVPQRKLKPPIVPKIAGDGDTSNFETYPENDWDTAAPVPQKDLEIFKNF

[3] = target: Death-associated protein kinase 3 (Homo sapiens) (UniProt O43293); assay: Selectivity interaction (KinomeScan (DiscoverX)) EUB0000655a DAPK3; details: at 10 µM
[4] = target: Mitogen-activated protein kinase 1 (Homo sapiens, UniProt P28482); assay: Selectivity interaction (Kinase panel (DSF assay)) EUB0001558a MAPK1
[5] = target: eIF-2-alpha kinase GCN2 (Homo sapiens) (UniProt Q9P2K8); assay: Selectivity interaction (Kinase panel (KiNativ target engagement assay in Jurkat cells)) EUB0001635a EIF2AK4; type: cell-based; details: at 1 µM
[6] = target: Tyrosine-protein kinase ABL1 (Homo sapiens, UniProt P00519); assay: Selectivity interaction (ActivX KiNativ screen (kinase selectivity in THP-1 cell lysates)) EUB0000639a ABL1; type: subcellular; details: lysate, at 5 µM
[7] = target: T3, MAP/microtubule affinity-regulating kinase 4 (Homo sapiens) (UniProt Q96L34); assay: Selectivity interaction (ActivX KiNativ screen (kinase selectivity in THP-1 cell lysates)) EUB0000639a MARK4; type: subcellular; details: lysate
T3 sequence (whole entry): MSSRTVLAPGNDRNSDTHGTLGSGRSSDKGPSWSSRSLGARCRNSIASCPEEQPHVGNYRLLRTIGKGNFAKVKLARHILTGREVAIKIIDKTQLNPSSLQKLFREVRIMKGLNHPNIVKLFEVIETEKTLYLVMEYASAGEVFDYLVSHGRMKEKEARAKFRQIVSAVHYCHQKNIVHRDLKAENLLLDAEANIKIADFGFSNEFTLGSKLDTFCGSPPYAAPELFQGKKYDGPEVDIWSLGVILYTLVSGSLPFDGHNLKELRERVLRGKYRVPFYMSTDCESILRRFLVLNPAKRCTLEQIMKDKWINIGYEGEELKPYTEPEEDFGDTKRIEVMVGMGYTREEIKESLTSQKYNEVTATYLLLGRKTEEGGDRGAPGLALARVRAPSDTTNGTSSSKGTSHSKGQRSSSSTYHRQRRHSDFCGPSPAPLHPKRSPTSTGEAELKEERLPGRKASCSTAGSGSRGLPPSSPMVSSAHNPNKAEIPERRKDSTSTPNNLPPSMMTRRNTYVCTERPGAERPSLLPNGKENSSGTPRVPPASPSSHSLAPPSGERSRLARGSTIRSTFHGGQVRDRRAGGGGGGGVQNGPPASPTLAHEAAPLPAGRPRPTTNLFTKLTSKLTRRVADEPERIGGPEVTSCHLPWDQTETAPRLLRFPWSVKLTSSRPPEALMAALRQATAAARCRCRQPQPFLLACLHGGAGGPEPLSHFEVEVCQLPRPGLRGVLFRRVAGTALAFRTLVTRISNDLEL

[8] = target: Phosphatidylinositol 4-kinase beta (Homo sapiens, UniProt Q9UBF8); assay: Selectivity interaction (ActivX KiNativ screen (kinase selectivity in THP-1 cell lysates)) EUB0000639a PI4KB; type: subcellular; details: lysate, at 1 µM
[9] = target: Histone-lysine N-methyltransferase, H3 lysine-36 specific (Homo sapiens) (UniProt Q96L73); assay: Selectivity interaction (PWWP, WD40, and Tudor domain panel (DSLS measurements, literature)) EUB0000270b NSD1
[10] = target: Sigma intracellular receptor 2 (Homo sapiens) (UniProt Q5BJF2); assay: Selectivity interaction (GPCR panel (PDSP screen)) EUB0000311b TMEM97; details: at 10 µM
[11] = target: Protein-tyrosine kinase 2-beta (Homo sapiens) (UniProt Q14289); assay: Selectivity interaction (Kinase screening (Nanosyn)) EUB0000604a PTK2B
Protein-tyrosine kinase 2-beta (Homo sapiens), sequence (Q14289 whole entry, looked up): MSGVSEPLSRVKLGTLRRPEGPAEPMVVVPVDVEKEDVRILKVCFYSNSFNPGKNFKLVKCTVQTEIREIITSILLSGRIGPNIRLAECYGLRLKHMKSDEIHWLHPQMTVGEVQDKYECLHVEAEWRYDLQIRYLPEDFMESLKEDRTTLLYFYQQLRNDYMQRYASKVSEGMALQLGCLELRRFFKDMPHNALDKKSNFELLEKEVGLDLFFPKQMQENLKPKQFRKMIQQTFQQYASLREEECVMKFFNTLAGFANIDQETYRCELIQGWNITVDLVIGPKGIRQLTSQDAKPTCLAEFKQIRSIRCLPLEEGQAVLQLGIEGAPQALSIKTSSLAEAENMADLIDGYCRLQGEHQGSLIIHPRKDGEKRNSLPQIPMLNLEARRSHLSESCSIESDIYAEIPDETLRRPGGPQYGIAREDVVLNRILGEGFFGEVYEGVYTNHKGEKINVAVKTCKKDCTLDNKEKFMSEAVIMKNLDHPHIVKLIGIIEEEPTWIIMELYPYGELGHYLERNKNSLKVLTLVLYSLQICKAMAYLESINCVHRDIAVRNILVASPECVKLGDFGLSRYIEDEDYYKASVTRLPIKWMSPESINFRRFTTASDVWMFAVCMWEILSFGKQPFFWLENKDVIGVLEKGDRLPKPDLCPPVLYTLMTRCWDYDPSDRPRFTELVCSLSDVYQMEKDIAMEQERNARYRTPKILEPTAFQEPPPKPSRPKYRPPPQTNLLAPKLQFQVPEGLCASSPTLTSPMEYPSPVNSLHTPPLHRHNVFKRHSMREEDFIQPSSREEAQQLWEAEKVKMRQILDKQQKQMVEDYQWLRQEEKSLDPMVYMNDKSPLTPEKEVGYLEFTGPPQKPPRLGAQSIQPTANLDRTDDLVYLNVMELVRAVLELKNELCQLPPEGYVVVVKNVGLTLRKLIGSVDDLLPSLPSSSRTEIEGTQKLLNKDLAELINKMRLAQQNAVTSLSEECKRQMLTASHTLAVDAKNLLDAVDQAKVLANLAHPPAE

eIF-2-alpha kinase GCN2 (Homo sapiens), sequence (Q9P2K8 whole entry): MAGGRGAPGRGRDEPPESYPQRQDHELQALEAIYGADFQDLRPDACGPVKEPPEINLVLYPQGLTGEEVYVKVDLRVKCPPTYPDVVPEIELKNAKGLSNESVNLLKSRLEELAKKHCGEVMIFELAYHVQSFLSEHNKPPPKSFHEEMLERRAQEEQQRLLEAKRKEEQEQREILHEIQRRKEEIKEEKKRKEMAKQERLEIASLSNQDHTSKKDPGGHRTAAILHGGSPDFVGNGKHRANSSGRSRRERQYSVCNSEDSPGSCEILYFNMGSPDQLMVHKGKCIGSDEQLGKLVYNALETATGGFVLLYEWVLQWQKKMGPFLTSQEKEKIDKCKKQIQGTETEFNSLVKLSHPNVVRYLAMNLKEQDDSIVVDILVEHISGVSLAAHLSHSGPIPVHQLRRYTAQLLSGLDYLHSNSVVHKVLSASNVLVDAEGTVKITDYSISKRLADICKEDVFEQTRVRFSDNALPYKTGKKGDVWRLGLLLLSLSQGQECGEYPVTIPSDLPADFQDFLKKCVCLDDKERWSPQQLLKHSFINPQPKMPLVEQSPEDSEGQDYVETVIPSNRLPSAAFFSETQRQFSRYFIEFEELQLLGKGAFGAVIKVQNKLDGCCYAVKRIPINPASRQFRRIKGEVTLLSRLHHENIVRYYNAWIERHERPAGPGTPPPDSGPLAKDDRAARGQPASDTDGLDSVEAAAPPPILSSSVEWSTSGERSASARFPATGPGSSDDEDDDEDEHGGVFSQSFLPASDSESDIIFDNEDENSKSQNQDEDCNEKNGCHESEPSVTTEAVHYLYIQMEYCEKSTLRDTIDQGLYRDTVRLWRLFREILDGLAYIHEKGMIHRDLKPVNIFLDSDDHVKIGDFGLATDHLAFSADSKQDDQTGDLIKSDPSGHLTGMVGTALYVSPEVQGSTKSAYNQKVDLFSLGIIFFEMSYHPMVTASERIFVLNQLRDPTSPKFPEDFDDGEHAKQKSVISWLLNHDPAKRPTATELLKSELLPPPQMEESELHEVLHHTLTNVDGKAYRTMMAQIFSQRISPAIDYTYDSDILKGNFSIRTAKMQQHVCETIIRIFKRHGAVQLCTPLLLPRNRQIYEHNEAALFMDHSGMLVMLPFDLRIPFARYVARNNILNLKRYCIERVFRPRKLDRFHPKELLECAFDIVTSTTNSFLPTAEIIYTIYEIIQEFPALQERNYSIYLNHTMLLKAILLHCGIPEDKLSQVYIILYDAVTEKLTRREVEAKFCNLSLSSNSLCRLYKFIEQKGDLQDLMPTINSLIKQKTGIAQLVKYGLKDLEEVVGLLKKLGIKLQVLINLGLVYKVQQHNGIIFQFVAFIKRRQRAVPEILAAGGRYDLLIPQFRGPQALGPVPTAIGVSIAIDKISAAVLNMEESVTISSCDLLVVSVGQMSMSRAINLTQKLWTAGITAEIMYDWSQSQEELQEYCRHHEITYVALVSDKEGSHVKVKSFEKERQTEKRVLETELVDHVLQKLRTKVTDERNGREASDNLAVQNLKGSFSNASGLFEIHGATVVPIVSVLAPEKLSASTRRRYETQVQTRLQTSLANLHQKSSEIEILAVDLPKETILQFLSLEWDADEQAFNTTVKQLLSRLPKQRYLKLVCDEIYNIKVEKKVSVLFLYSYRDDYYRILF
Phosphatidylinositol 4-kinase beta, sequence (Q9UBF8 2-816 limits assumed): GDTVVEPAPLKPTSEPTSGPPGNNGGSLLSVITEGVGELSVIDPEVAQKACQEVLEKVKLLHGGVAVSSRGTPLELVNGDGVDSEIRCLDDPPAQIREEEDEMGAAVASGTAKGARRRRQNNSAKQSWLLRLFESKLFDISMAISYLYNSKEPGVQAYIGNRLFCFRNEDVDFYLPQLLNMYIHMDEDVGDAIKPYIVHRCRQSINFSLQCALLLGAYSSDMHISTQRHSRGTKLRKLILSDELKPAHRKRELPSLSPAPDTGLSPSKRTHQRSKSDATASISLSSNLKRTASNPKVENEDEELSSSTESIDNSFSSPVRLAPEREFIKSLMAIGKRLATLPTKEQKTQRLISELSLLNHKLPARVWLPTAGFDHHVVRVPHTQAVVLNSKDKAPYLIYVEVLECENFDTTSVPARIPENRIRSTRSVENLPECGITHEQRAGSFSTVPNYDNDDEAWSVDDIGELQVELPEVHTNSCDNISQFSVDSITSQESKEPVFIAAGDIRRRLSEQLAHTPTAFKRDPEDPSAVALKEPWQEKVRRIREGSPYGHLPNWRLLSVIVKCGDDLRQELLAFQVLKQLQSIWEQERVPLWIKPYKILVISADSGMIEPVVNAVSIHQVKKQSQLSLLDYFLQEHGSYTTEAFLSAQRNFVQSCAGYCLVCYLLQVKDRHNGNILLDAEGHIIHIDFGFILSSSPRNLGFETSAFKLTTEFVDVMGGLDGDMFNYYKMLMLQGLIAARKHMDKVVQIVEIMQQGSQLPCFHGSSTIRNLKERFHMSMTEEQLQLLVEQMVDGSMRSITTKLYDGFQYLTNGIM
Sigma intracellular receptor 2 (Homo sapiens), sequence (Q5BJF2 whole entry): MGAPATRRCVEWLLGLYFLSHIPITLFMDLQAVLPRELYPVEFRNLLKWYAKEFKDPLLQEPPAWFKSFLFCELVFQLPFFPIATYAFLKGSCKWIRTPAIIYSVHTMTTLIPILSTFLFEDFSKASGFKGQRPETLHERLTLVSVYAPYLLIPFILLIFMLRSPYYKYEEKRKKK
Mitogen-activated protein kinase 1, sequence (P28482 whole entry): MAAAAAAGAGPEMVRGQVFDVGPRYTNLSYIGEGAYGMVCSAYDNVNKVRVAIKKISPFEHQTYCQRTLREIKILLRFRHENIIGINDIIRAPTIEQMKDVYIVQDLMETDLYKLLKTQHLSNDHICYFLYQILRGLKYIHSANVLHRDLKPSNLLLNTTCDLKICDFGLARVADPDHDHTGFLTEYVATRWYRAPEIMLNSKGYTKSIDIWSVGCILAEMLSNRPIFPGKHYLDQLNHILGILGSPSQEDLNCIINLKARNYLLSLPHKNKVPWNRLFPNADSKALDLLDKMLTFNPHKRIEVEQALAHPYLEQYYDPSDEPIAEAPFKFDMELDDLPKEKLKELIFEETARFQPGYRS
Death-associated protein kinase 3 (Homo sapiens), sequence (O43293 whole entry, looked up): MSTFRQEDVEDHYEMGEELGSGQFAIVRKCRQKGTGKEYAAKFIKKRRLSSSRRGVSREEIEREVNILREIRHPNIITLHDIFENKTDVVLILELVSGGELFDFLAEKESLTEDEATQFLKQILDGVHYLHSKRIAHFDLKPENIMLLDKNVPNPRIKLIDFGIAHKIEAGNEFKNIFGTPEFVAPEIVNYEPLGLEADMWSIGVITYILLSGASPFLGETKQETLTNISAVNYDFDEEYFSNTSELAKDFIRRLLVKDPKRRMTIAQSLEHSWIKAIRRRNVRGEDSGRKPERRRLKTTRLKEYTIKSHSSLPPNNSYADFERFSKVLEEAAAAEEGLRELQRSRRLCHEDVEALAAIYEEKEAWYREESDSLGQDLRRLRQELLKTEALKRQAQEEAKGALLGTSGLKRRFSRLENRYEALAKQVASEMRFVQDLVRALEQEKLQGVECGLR

SMILES: CCN(CC)CCCCNc1ncc2cc(-c3cc(OC)cc(OC)c3)c(NC(=O)NC(C)(C)C)nc2n1
- % of control [1]: 100%
- % of control [2]: 100%

SMILES: CN(C)CCOc1ccc(-c2nc(-c3ccncc3)c(-c3ccc4c(c3)CC/C4=N\O)[nH]2)cc1
- % of control [3]: 89%

SMILES: CC(C)(O)[C@H](F)CN1Cc2cc(NC(=O)c3cnn4cccnc34)c(N3CCOCC3)cc2C1=O
- dTM [4]: 0.4 K

SMILES: C=CC(=O)Nc1ccc(C(=O)Nc2[nH]nc3c2CN(C(=O)N[C@H](CN(C)C)c2ccccc2)C3(C)C)cc1
- % of engagement ([5]; Selectivity number of off-targets 0.0, Selectivity number of targets 233.0, Source Knowledge https://www.sciencedirect.com/science/article/pii/S2451945619300674?via%3Dihub): -7.2%
- % of engagement [5]: -16.6%

SMILES: CC[C@@H]1[C@H](F)C(=O)N[C@@H]1COc1nccc2cc(C(N)=O)c(OC)cc12 [ZIMLOVISERTIB]
- % of inhibition [6]: 30.7%
- % of inhibition ([7]; at 0.01 µM): 10.4%
- % of inhibition ([7]; at 0.04 µM): 9.1%
- % of inhibition ([7]; at 0.2 µM): 19.8%
- % of inhibition ([7]; at 1 µM): 21.6%
- % of inhibition ([7]; at 5 µM): 36.9%
- % of inhibition [8]: -19.1%

SMILES: Cc1cc(CN)cc(C)c1-c1ncn(C)c1-c1cncn1C
- dTagg [9]: 0.1 K

SMILES: CCc1ccccc1C(=O)Nc1n[nH]c2c(C)c(F)c(C3C(C#N)=C(C)N(C)C(C)=C3C#N)cc12 [BAY-3827]
- % of inhibition [10]: 78.3%

SMILES: Cc1cnc(Nc2ccc(F)cc2Cl)nc1-c1c[nH]c(C(=O)N[C@H](CO)c2cccc(Cl)c2)c1
- % of inhibition [11]: 6%
